Legend:
HT-29 = assay: Growth inhibition of human HT-29 cells assessed as cell growth at 0.01 uM incubated for 48 hrs by sulforhodamine B assay relative to control; type: functional; details: HT-29, 48 h, read-out: Activity
A498 [1] = assay: Growth inhibition of human A498 cells assessed as cell growth at 1 uM incubated for 48 hrs by sulforhodamine B assay relative to control; type: functional; details: A498, 48 h, read-out: Activity
UACC-62 = assay: Growth inhibition of human UACC62 cells assessed as cell growth at 1 uM incubated for 48 hrs by sulforhodamine B assay relative to control; type: functional; details: UACC-62, 48 h, read-out: Activity
SR = assay: Growth inhibition of human SR cells assessed as cell growth at 1 uM incubated for 48 hrs by sulforhodamine B assay relative to control; type: functional; details: read-out: Activity
SK-MEL-28 = assay: Growth inhibition of human SK-MEL-28 cells incubated for 48 hrs by sulforhodamine B assay; type: functional, cell-based; details: SK-MEL-28, 48 h
OVCAR-8 = assay: Growth inhibition of human OVCAR8 cells assessed as cell growth at 0.01 uM incubated for 48 hrs by sulforhodamine B assay relative to control; type: functional; details: OVCAR-8, 48 h, read-out: Activity
HOP-62 = assay: Growth inhibition of human HOP62 cells incubated for 48 hrs by sulforhodamine B assay; type: functional, cell-based; details: HOP-62, 48 h
NCI-H522 = assay: Growth inhibition of human NCI-H522 cells assessed as cell growth at 1 uM incubated for 48 hrs by sulforhodamine B assay relative to control; type: functional; details: NCI-H522, 48 h, read-out: Activity
NCI-H322M = assay: Growth inhibition of human NCI-H322M cells assessed as cell growth at 100 uM incubated for 48 hrs by sulforhodamine B assay relative to control; type: functional; details: read-out: Activity
SNB-19 = assay: Growth inhibition of human SNB19 cells incubated for 48 hrs by sulforhodamine B assay; type: functional, cell-based; details: SNB-19, 48 h
MDA-MB-231 = assay: Growth inhibition of human MDA-MB-231 cells incubated for 48 hrs by sulforhodamine B assay; type: functional, cell-based; details: MDA-MB-231, 48 h
A498 [2] = assay: Growth inhibition of human A498 cells incubated for 48 hrs by sulforhodamine B assay; type: functional, cell-based; details: A498, 48 h
Malme-3M [3] = assay: Growth inhibition of human MALME-3M cells assessed as cell growth at 0.01 uM incubated for 48 hrs by sulforhodamine B assay relative to control; type: functional; details: read-out: Activity
T47D = assay: Growth inhibition of human T47D cells assessed as cell growth at 0.01 uM incubated for 48 hrs by sulforhodamine B assay relative to control; type: functional; details: read-out: Activity
NCI-H460 [4] = assay: Growth inhibition of human NCI-H460 cells assessed as cell growth at 0.1 uM incubated for 48 hrs by sulforhodamine B assay relative to control; type: functional; details: NCI-H460, 48 h, read-out: Activity
SF-295 = assay: Growth inhibition of human SF295 cells assessed as cell growth at 100 uM incubated for 48 hrs by sulforhodamine B assay relative to control; type: functional; details: SF-295, 48 h, read-out: Activity
MCF7 = assay: Growth inhibition of human MCF7 cells incubated for 48 hrs by sulforhodamine B assay; type: functional, cell-based; details: MCF7, 48 h
Hs-578T [5] = assay: Growth inhibition of human Hs578T cells assessed as cell growth at 1 uM incubated for 48 hrs by sulforhodamine B assay relative to control; type: functional; details: read-out: Activity
HCC 2998 = assay: Growth inhibition of human HCC2998 cells assessed as cell growth at 0.01 uM incubated for 48 hrs by sulforhodamine B assay relative to control; type: functional; details: HCC 2998, 48 h, read-out: Activity
BT-549 = assay: Growth inhibition of human BT549 cells assessed as cell growth at 1 uM incubated for 48 hrs by sulforhodamine B assay relative to control; type: functional; details: BT-549, 48 h, read-out: Activity
HCT-15 = assay: Growth inhibition of human HCT15 cells assessed as cell growth at 0.1 uM incubated for 48 hrs by sulforhodamine B assay relative to control; type: functional; details: HCT-15, 48 h, read-out: Activity
LOX IMVI = assay: Growth inhibition of human LOXIMVI cells assessed as cell growth at 100 uM incubated for 48 hrs by sulforhodamine B assay relative to control; type: functional; details: read-out: Activity
SW-620 = assay: Growth inhibition of human SW620 cells assessed as cell growth at 100 uM incubated for 48 hrs by sulforhodamine B assay relative to control; type: functional; details: SW-620, 48 h, read-out: Activity
Malme-3M [6] = assay: Growth inhibition of human MALME-3M cells assessed as cell growth at 0.1 uM incubated for 48 hrs by sulforhodamine B assay relative to control; type: functional; details: read-out: Activity
NCI-H460 [7] = assay: Growth inhibition of human NCI-H460 cells assessed as cell growth at 0.01 uM incubated for 48 hrs by sulforhodamine B assay relative to control; type: functional; details: NCI-H460, 48 h, read-out: Activity
Hs-578T [8] = assay: Growth inhibition of human Hs578T cells assessed as cell growth at 0.1 uM incubated for 48 hrs by sulforhodamine B assay relative to control; type: functional; details: read-out: Activity
OVCAR-4 = assay: Growth inhibition of human OVCAR4 cells incubated for 48 hrs by sulforhodamine B assay; type: functional, cell-based; details: OVCAR-4, 48 h
M14 = assay: Growth inhibition of human M14 cells incubated for 48 hrs by sulforhodamine B assay; type: functional, cell-based; details: M14, 48 h
[9] = read-out: LC50 (the source's name)
[10] = read-out: pLC50 (the source's name) (converted)

COc1cc(Cl)cc(-c2nn(-c3cccc(NC(=O)Nc4ccc(Cl)c(C(F)(F)F)c4)c3)cc2-c2ccncc2)c1
growth at 0.01 µM (HT-29): 101% | growth at 1 µM (A498 [1]): 78% | growth at 1 µM (UACC-62): 82% | growth at 1 µM (SR): 53% | GI50 (SK-MEL-28; read-out: GI50): 2.41 µM | CC50 (SK-MEL-28; [9]): 5.41 µM | TGI (SK-MEL-28; read-out: TGI): 84.1 µM | GI50 (SK-MEL-28; read-out: pGI50 (converted)): 2.4 µM | CC50 (SK-MEL-28; [10]): 53.7 µM | TGI (SK-MEL-28; read-out: pTGI (converted)): 4.17 µM | growth at 0.01 µM (OVCAR-8): 98% | GI50 (HOP-62; read-out: GI50): 2.12 µM | CC50 (HOP-62; [9]): > 100 µM | TGI (HOP-62; read-out: TGI): 63.2 µM | GI50 (HOP-62; read-out: pGI50 (converted)): 2.14 µM | CC50 (HOP-62; [10]): > 100 µM | TGI (HOP-62; read-out: pTGI (converted)): 6.31 µM | growth at 1 µM (NCI-H522): 34% | growth at 100 µM (NCI-H322M): -22% | GI50 (SNB-19; read-out: GI50): 2.93 µM | CC50 (SNB-19; [9]): > 100 µM | TGI (SNB-19; read-out: TGI): 17.5 µM | GI50 (SNB-19; read-out: pGI50 (converted)): 1.17 µM | CC50 (SNB-19; [10]): > 100 µM | TGI (SNB-19; read-out: pTGI (converted)): 17.8 µM | GI50 (MDA-MB-231; read-out: GI50): 1.44 µM | CC50 (MDA-MB-231; [9]): 9.52 µM | TGI (MDA-MB-231; read-out: TGI): 37.4 µM | GI50 (MDA-MB-231; read-out: pGI50 (converted)): 1.45 µM | CC50 (MDA-MB-231; [10]): 9.77 µM | TGI (MDA-MB-231; read-out: pTGI (converted)): 3.72 µM | GI50 (A498 [2]; read-out: GI50): 2.58 µM | CC50 (A498 [2]; [9]): 57.6 µM | TGI (A498 [2]; read-out: TGI): 14.4 µM | GI50 (A498 [2]; read-out: pGI50 (converted)): 2.69 µM | CC50 (A498 [2]; [10]): 57.5 µM | TGI (A498 [2]; read-out: pTGI (converted)): 4.27 µM | growth at 0.01 µM (Malme-3M [3]): 94% | growth at 0.01 µM (T47D): 98% | growth at 0.1 µM (NCI-H460 [4]): 102% | growth at 100 µM (SF-295): -82% | GI50 (MCF7; read-out: GI50): 1.01 µM | LC50 (MCF7; read-out: LC50): > 100 µM | TGI (MCF7; read-out: TGI): 11 µM | GI50 (MCF7; read-out: pGI50 (converted)): 1.02 µM | LC50 (MCF7; read-out: pLC50 (converted)): > 100 µM | TGI (MCF7; read-out: pTGI (converted)): 11 µM | growth at 1 µM (Hs-578T [5]): 89% | growth at 0.01 µM (HCC 2998): 95% | growth at 1 µM (BT-549): 92% | growth at 0.1 µM (HCT-15): 54% | growth at 100 µM (LOX IMVI): -34% | growth at 100 µM (SW-620): -58% | growth at 0.1 µM (Malme-3M [6]): 79% | growth at 0.01 µM (NCI-H460 [7]): 100% | growth at 0.1 µM (Hs-578T [8]): 90% | GI50 (OVCAR-4; read-out: GI50): 1.53 µM | CC50 (OVCAR-4; [9]): > 100 µM | TGI (OVCAR-4; read-out: TGI): 25.5 µM | GI50 (OVCAR-4; read-out: pGI50 (converted)): 1.82 µM | CC50 (OVCAR-4; [10]): > 100 µM | TGI (OVCAR-4; read-out: pTGI (converted)): 2.63 µM | GI50 (M14; read-out: GI50): 1.33 µM | CC50 (M14; [9]): 0.05 µM | TGI (M14; read-out: TGI): 34.7 µM | GI50 (M14; read-out: pGI50 (converted)): 1.32 µM | CC50 (M14; [10]): 9.12 µM | TGI (M14; read-out: pTGI (converted)): 8.51 µM
